Measurements published in patent US8987287B2, “Spirocyclic morphinans and their use” (Purdue Pharma L.P., priority 2012, dated 2015).

How the values were obtained:
κ opioid receptor = κ opioid receptor (Homo sapiens (Human), UniProt P41145); assay: κ-opioid receptor [35S]GTPγS functional assay, U-2 OS cells; assay type: biochemical; conditions: for Emax: relative to U69,593, U-2 OS cells
Protocol: κ-Opioid Receptor Functional Assay Procedures: Functional [^35S]GTPγS binding assays were conducted as follows. κ opioid receptor membrane solution was prepared by sequentially adding final concentrations of 0.026 μg/μl κ membrane protein (in-house), 10 μg/mL saponin, 3 μM GDP and 0.20 nM [^35S]GTPγS to binding buffer (100 mM NaCl, 10 mM MgCl2, 20 mM HEPES, pH 7.4) on ice. The prepared membrane solution (190 μl/well) was transferred to 96-shallow well polypropylene plates containing 10 μl of 20× concentrated stock solutions of agonist prepared in DMSO. Plates were incubated for 30 min at a temperature of about 25° C. with shaking. Reactions were terminated by rapid filtration onto 96-well Unifilter GF/B filter plates (Perkin Elmer, Shelton, Conn.) using a 96-well tissue harvester (Packard) and followed by three filtration washes with 200 μl ice-cold binding buffer (10 mM NaH2PO4, 10 mM Na2HPO4, pH 7.4). Filter plates were subsequently dried at 50° C. for 2-3 hours. Fifty μl/well scintillation cocktail (Perkin Elmer, Shelton, Conn.) was added and plates were counted in a Packard Top-Count for 1 min/well.
κ-Opioid Receptor Functional Data: κ GTP EC50 is the concentration of a compound providing 50% of the maximal response for the compound at a κ receptor.
κ GTP Emax (%) is the maximal effect elicited by a compound relative to the effect elicited by U69,593.
(§1) The following TABLE 3 provides results on the activity response of certain Compounds of the Invention at the μ- and κ-opioid receptors determined as described above using U-2 OS cells.

μ-opioid receptor = μ-opioid receptor (Homo sapiens (Human), UniProt P35372); assay: μ-opioid receptor [35S]GTPγS functional assay, U-2 OS cells; assay type: biochemical; conditions: for Emax: relative to DAMGO, U-2 OS cells
Protocol: μ-Opioid Receptor Functional Assay Procedures: [^35S]GTPγS functional assays were conducted using freshly thawed μ-receptor membranes prepared in-house from a cell line expressing recombinant μ opioid receptor in a HEK-293, CHO or U-2 OS cell background, or purchased from a commercial source (Perkin Elmer, Shelton, Conn.; or DiscovRx, Fremont, Calif.). Assay reactions were prepared by sequentially adding the following reagents to binding buffer (100 mM NaCl, 10 mM MgCl2, 20 mM HEPES, pH 7.4) on ice (final concentrations indicated): membrane protein (0.026 mg/mL), saponin ([…]), GDP ([…]) and [^35S]GTPγS (0.20 nM; Perkin Elmer, Shelton, Conn.). The prepared membrane solution (190 μl/well) was transferred to 96-shallow well polypropylene plates containing 10 μl of 20× concentrated stock solutions of the agonist [D-Ala^2, N-methyl-Phe^4 Gly-ol^5]-enkephalin (DAMGO) prepared in dimethyl sulfoxide (DMSO). Plates were incubated for 30 min at about 25° C. with shaking. Reactions were terminated by rapid filtration onto 96-well Unifilter GF/B filter plates (Perkin Elmer, Shelton, Conn.) using a 96-well tissue harvester (Perkin Elmer, Shelton, Conn.) followed by three filtration washes with 200 μl of ice-cold wash buffer (10 mM NaH2PO4, 10 mM Na2HPO4, pH 7.4). Filter plates were subsequently dried at 50° C. for 2-3 hours. BetaScint scintillation cocktail (Perkin Elmer, Shelton, Conn.) was added (50 μl/well) and plates were counted using a Packard Top-Count for 1 min/well. Data were analyzed using the sigmoidal dose-response curve fitting functions in GraphPad PRISM v. 3.0, or an in-house function for non-linear, sigmoidal dose-response curve-fitting.
μ-Opioid Receptor Functional Data: μ GTP EC50 is the concentration of a compound providing 50% of the maximal response for the compound at a μ-opioid receptor.
μ GTP Emax (%) is the maximal effect elicited by a compound relative to the effect elicited by DAMGO, a standard μ agonist. Generally, the μ GTP Emax (%) value measures the efficacy of a compound to treat or prevent pain or other Conditions.
as §1

Compound | EC50 (κ opioid receptor) | Emax (κ opioid receptor) | EC50 (μ-opioid receptor) | Emax (μ-opioid receptor)
COc1ccc2c(c1)[C@]13CCN(CC(F)(F)F)[C@H](C2)[C@]1(O)CC[C@@]1(C3)NC(=O)NC1=O [Compound 13, (4bR,4′S,8aS,9R)-8a-hydroxy-3-methoxy-11-(2,2,2-trifluoroethyl)-5,7,8,8a,9,10-hexahydrospiro[9,4b-(epiminoethano)phenanthrene-6,4′-imidazolidine]-2′,5′-dione] | > 20 µM | 65 ± 8.74% | > 20 µM | 10%
COc1ccc2c(c1)[C@]13CCN(CCF)[C@H](C2)[C@]1(O)CC[C@@]1(C3)NC(=O)NC1=O [Compound 14, (4bR,4′S,8aS,9R)-1-(2-fluoroethyl)-8a-hydroxy-3-methoxy-5,7,8,8a,9,10-hexahydrospiro[9,4b-(epiminoethano)phenanthrene-6,4′-imidazolidine]-2′,5′-dione] | > 20 µM | 110 ± 6.74% | > 20 µM | 14.5%
CCN1CC[C@]23C[C@]4(CC[C@@]2(O)[C@H]1Cc1ccc(OC)cc13)NC(=O)NC4=O [Compound 15, (4bR,4′S,8aS,9R)-11-ethyl-8a-hydroxy-3-methoxy-5,7,8,8a,9,10-hexahydrospiro[9,4b-(epiminoethano)phenanthrene-6,4′-imidazolidine]-2′,5′-dione] | > 20 µM | 65.3 ± 7.86% | > 20 µM | 8%
CCN1C(=O)N[C@]2(CC[C@@]3(O)[C@H]4Cc5ccc(OC)cc5[C@@]3(CCN4CC)C2)C1=O [Compound 16, (4bR,4′S,8aS,9R)-1′,11-diethyl-8a-hydroxy-3-methoxy-5,7,8,8a,9,10-hexahydrospiro[9,4b-(epiminoethano)phenanthrene-6,4′-imidazolidine]-2′,5′-dione] | > 20 µM | 50 ± 1% | > 20 µM | 8.5%
COc1ccc2c(c1)[C@]13CCN(CCC(F)(F)F)[C@H](C2)[C@]1(O)CC[C@@]1(C3)NC(=O)NC1=O [Compound 17, (4bR,4′S,8aS,9R)-8a-hydroxy-3-methoxy-11-(3,3,3-trifluoropropyl)-5,7,8,8a,9,10-hexahydrospiro[9,4b-(epiminoethano)phenanthrene-6,4′-imidazolidine]-2′,5′-dione] | > 20 µM | 83.7 ± 6.69% | > 20 µM | 18.5 ± 6.14%
COc1ccc2c(c1)[C@]13CCN(CCCC(F)(F)F)[C@H](C2)[C@]1(O)CC[C@@]1(C3)NC(=O)NC1=O [Compound 18, (4bR,4′S,8aS,9R)-8a-hydroxy-3-methoxy-11-(4,4,4-trifluorobutyl)-5,7,8,8a,9,10-hexahydrospiro[9,4b-(epiminoethano)phenanthrene-6,4′-imidazolidine]-2′,5′-dione] | > 20 µM | 86 ± 7.21% | > 20 µM | 20.7 ± 4.81%
COc1ccc2c(c1)[C@]13CCN(CC(F)F)[C@H](C2)[C@]1(O)CC[C@@]1(C3)NC(=O)NC1=O [Compound 19, (4bR,4′S,8aS,9R)-11-(2,2-difluoroethyl)-8a-hydroxy-3-methoxy-5,7,8,8a,9,10-hexahydrospiro[9,4b-(epiminoethano)phenanthrene-6,4′-imidazolidine]-2′,5′-dione] | > 20 µM | 52% | > 20 µM | 1%
COc1ccc2c(c1)[C@]13CCN(CCc4ccccc4)[C@H](C2)[C@]1(O)CC[C@@]1(C3)NC(=O)NC1=O [Compound 20, (4bR,4′S,8aS,9R)-8a-hydroxy-3-methoxy-11-phenethyl-5,7,8,8a,9,10-hexahydrospiro[9,4b-(epiminoethano)phenanthrene-6,4′-imidazolidine]-2′,5′-dione] | > 20 µM | 75.7 ± 11.5% | 0.664 ± 0.113 µM | 105 ± 1.23%
COc1ccc2c(c1)[C@]13CCN(CC=C(C)C)[C@H](C2)[C@]1(O)CC[C@@]1(C3)NC(=O)NC1=O [Compound 21, (4bR,4′S,8aS,9R)-8a-hydroxy-3-methoxy-11-(3-methylbut-2-en-1-yl)-5,7,8,8a,9,10-hexahydrospiro[9,4b-(epiminoethano)phenanthrene-6,4′-imidazolidine]-2′,5′-dione] | > 20 µM | -1% | > 20 µM | 5.5%
COc1ccc2c(c1)[C@]13CCN(CCC(C)C)[C@H](C2)[C@]1(O)CC[C@@]1(C3)NC(=O)NC1=O [Compound 22, (4bR,4′S,8aS,9R)-8a-hydroxy-11-isopentyl-3-methoxy-5,7,8,8a,9,10-hexahydrospiro[9,4b-(epiminoethano)phenanthrene-6,4′-imidazolidine]-2′,5′-dione] | > 20 µM | 91.3 ± 6.57% | 3.96 ± 1.41 µM | 46 ± 6%
COc1ccc2c(c1)[C@]13CCN(CC4CCCCC4)[C@H](C2)[C@]1(O)CC[C@@]1(C3)NC(=O)NC1=O [Compound 23, (4bR,4′S,8aS,9R)-11-(cyclohexylmethyl)-8a-hydroxy-3-methoxy-5,7,8,8a,9,10-hexahydrospiro[9,4b-(epiminoethano)phenanthrene-6,4′-imidazolidine]-2′,5′-dione] | > 20 µM | 98 ± 8.89% | > 20 µM | 11%
COc1ccc2c(c1)[C@]13CCN(C/C=C/c4ccccc4)[C@H](C2)[C@]1(O)CC[C@@]1(C3)NC(=O)NC1=O [Compound 24, (4bR,4′S,8aS,9R)-11-cinnamyl-8a-hydroxy-3-methoxy-5,7,8,8a,9,10-hexahydrospiro[9,4b-(epiminoethano)phenanthrene-6,4′-imidazolidine]-2′,5′-dione] | > 20 µM | 29.7 ± 1.86% | > 20 µM | 8%
COc1ccc2c(c1)[C@]13CCN(CC4CCOCC4)[C@H](C2)[C@]1(O)CC[C@@]1(C3)NC(=O)NC1=O [Compound 25, (4bR,4′S,8aS,9R)-8a-hydroxy-3-methoxy-11-((tetrahydro-2H-pyran-4-yl)methyl)-5,7,8,8a,9,10-hexahydrospiro[9,4b-(epiminoethano)phenanthrene-6,4′-imidazolidine]-2′,5′-dione] | > 20 µM | 10 ± 4.6% | > 20 µM | 6.67 ± 0.88%
COc1ccc2c(c1)[C@]13CCN(CCCc4ccccc4)[C@H](C2)[C@]1(O)CC[C@@]1(C3)NC(=O)NC1=O [Compound 26, (4bR,4′S,8aS,9R)-8a-hydroxy-3-methoxy-11-(3-phenylpropyl)-5,7,8,8a,9,10-hexahydrospiro[9,4b-(epiminoethano)phenanthrene-6,4′-imidazolidine]-2′,5′-dione] | > 20 µM | 63 ± 8.72% | > 20 µM | 26.7 ± 11.7%
O=C1NC(=O)[C@@]2(CC[C@@]3(O)[C@H]4Cc5ccc(O)cc5[C@@]3(CCN4CC3CCCCC3)C2)N1 [Compound 27, (4bR,4′S,8aS,9R)-11-(cyclohexylmethyl)-3,8a-dihydroxy-5,7,8,8a,9,10-hexahydrospiro[9,4b-(epiminoethano)phenanthrene-6,4′-imidazolidine]-2′,5′-dione] | 2.08 ± 0.406 µM | 33.3 ± 3.53% | 12.8 ± 3.86 µM | 21.3 ± 1.86%
CC(C)CCN1CC[C@]23C[C@]4(CC[C@@]2(O)[C@H]1Cc1ccc(O)cc13)NC(=O)NC4=O [Compound 28, (4bR,4′S,8aS,9R)-3,8a-dihydroxy-11-isopentyl-5,7,8,8a,9,10-hexahydrospiro[9,4b-(epiminoethano)phenanthrene-6,4′-imidazolidine]-2′,5′-dione] | 0.604 ± 0.112 µM | 88 ± 4.36% | 0.153 ± 0.0201 µM | 113 ± 2.78%
CCN1CC[C@]23C[C@]4(CC[C@@]2(O)[C@H]1Cc1ccc(O)cc13)NC(=O)NC4=O [Compound 29] | 0.25 ± 0.095 µM | 102 ± 2.19% | 1.26 ± 0.206 µM | 83.8 ± 0.8%
